In patent US20130072472A1, “N[…] ANSOLVATES” (DemeRx, Inc., priority 2011, published 2013):
Counter-ions that a name gives are not always drawn.

Tests used:
Type in all cases: physicochemical
[1] = Drying of solvated forms, gravimetric weight loss and XRPD; conditions: for gravimetric weight loss: hydrochloride
Experimental: Two other moisture absorbing, unstable, polymorphs of noribogaine hydrochloride, Forms F and G, which had mutually similar XRPD patterns were also identified. Form G was isolated from a slurry of Form A in MeOH at ambient temperature. Material G likely contains MeOH and water, and Form F (or Form II) is likely hydrated. […] A sharp weight loss at ˜312° C. indicated likely decomposition. Both Forms G and F are contemplated to readily pick up moisture from the atmosphere.

[2] = Thermogravimetric analysis (TGA); conditions: for TGA sharp weight loss / onset of probable decomposition: TGA thermogram
Experimental: Thermogravimetric analyses were performed using a TA Instruments Q5000 IR thermogravimetric analyzer. Temperature calibration was performed using nickel and Alumel™ Each sample was placed in an aluminum pan. The sample was hermetically sealed, the lid pierced, then inserted into the TO furnace. The furnace was heated under nitrogen.

[3] = Polymorphic conversion of solvated form on stirring in EtOH/water or heating
Description: Such a desolvation is surprising, given that it occurs upon stirring in another solvent, which comprises hydroxy groups and alkyl moieties as in MeOH. As described above, form F is a solvated polymorph that is obtained from MeOH.

[4] = Approximate ambient-temperature solubility, solvent addition method; conditions: thermodynamic from solid
Experimental: The approximate ambient-temperature solubilities of noribogaine hydrochloride Form A were measured in a variety of solvents and solvent mixtures using the solvent addition method (Table 2).
The solubility of noribogaine hydrochloride ansolvate were determined as tabulated below.

[5] = Dynamic vapor sorption (DVS); conditions: for State of the solids after DVS sorption/desorption: post-DVS, 5 to 95 to 5% RH
Experimental: Dynamic vapor sorption (DVS) data were collected on a VTI SOA-100 Vapor Sorption Analyzer. NaCl and PVP were used as calibration standards. Samples were not dried prior to analysis. Sorption and desorption data were collected over a range from 5 to 95% RH at 10% RH increments under a nitrogen purge. The equilibrium criterion used for analysis was less than 0.0100% weight change in 5 minutes with a maximum equilibration time of 3 hours. Data were not corrected for the initial moisture content of the samples.

[6] = Approximate aqueous solubility of noribogaine salt forms; conditions: water

## CC[C@H]1CC2C[C@H]3c4[nH]c5ccc(O)cc5c4CCN(C2)C13 [Form F, noribogaine hydrochloride]
[1]
  gravimetric weight loss: 4.1%
[2]; hydrochloride
  TGA sharp weight loss / onset of probable decomposition: ~312 °C
[3]; heating
  Polymorphic form change upon heating: converts to the ansolvate form A
[3]; stirring in 9:1 ethyl alcohol and water
  Polymorphic form change upon stirring: converted to the ansolvate form A

## CC[C@H]1CC2C[C@H]3c4[nH]c5ccc(O)cc5c4CCN(C2)C13 [Form G, noribogaine hydrochloride]
[1]
  Polymorphic form after weight loss, by XRPD: converted to Form A
[1]; listed as material G
  gravimetric weight loss: 7.95%

## CC[C@H]1CC2C[C@H]3c4[nH]c5ccc(O)cc5c4CCN(C2)C13 [HCl, Form A, noribogaine hydrochloride]
[4]; aqueous with cosolvent or surfactant or cyclodextrin, ACN:water 80:20, ambient temperature
  solubility: 9000 µg/mL
[4]; aqueous with cosolvent or surfactant or cyclodextrin, Acetone:water 50:50, ambient temperature
  solubility: 11000 µg/mL
[4]; aqueous with cosolvent or surfactant or cyclodextrin, TFE:water 50:50, ambient temperature
  solubility: 10000 µg/mL
[4]; organic solvent or mixture, Acetone, ambient temperature
  solubility: < 1000 µg/mL
[4]; organic solvent or mixture, CAN, ambient temperature
  solubility: < 1000 µg/mL
[4]; organic solvent or mixture, EtOAc, ambient temperature
  solubility: < 1000 µg/mL
[4]; organic solvent or mixture, EtOH, ambient temperature
  solubility: < 1000 µg/mL
[4]; organic solvent or mixture, HFIPA, ambient temperature
  solubility: 10000 µg/mL
[4]; organic solvent or mixture, MeOH, ambient temperature
  solubility: 2000 µg/mL
[4]; organic solvent or mixture, MeOH:THF 50:50, ambient temperature
  solubility: 1000 µg/mL
[4]; organic solvent or mixture, TFE, ambient temperature
  solubility: 4000 µg/mL
[4]; organic solvent or mixture, THF, ambient temperature
  solubility: < 1000 µg/mL
[4]; organic solvent or mixture, chloroform, ambient temperature
  solubility: < 1000 µg/mL
[4]; organic solvent or mixture, chloroform:EtOH 50:50, ambient temperature
  solubility: < 1000 µg/mL
[4]; organic solvent or mixture, p-dioxane, ambient temperature
  solubility: < 1000 µg/mL
[4]; Water, added all at once, stirred ~24 hours
  solubility: < 4000 µg/mL
[5]; between 5 and 95% relative humidity
  DVS weight gain/loss: approximately 0.03%
[2]; listed as Form A, hydrochloride
  TGA sharp weight loss / onset of probable decomposition: ~316 °C
[2]; prior to ~316° C.
  TGA weight loss: negligible weight loss
[6]; hydrochloride
  Approx. Aqueous Solubility: 1000 to 4000 µg/mL

## CC[C@H]1CC2C[C@H]3c4[nH]c5ccc(O)cc5c4CCN(C2)C13 [Phosphate, Form C, noribogaine phosphate]
[5]; between 5 and 95% RH
  DVS weight gain: approximately 3.3 wt %
[5]; equilibration to 5% RH
  DVS weight loss upon equilibration: approximately 1 wt %
[5]
  State of the solids after DVS sorption/desorption: remained Form C
[2]
  TGA sharp weight loss / onset of probable decomposition: 241 °C
[2]; from 30 to 140° C.
  TGA weight loss: approximately 1.6%
[6]
  Approx. Aqueous Solubility: 23000 µg/mL

## CC[C@H]1CC2C[C@H]3c4[nH]c5ccc(O)cc5c4CCN(C2)C13 [Sulfate, Form D, noribogaine sulfate ansolvate]
[5]; between 75 and 95% RH
  DVS weight gain: approximately 26 wt %
[5]; listed as sulfate salt
  State of the solids after DVS sorption/desorption: deliquesced
[5]; up to 75% RH
  DVS weight gain: about 0.7 wt %
[2]
  TGA sharp weight loss / onset of probable decomposition: approximately 274 °C
[2]; from approximately 160 to 245° C.
  TGA weight loss: 4.9 wt %
[6]
  Approx. Aqueous Solubility: >80000 µg/mL

## CC[C@H]1CC2C[C@H]3c4[nH]c5ccc(O)cc5c4CCN(C2)C13 [Tosylate, Form B, tosylate salt of noribogaine]
[6]
  Approx. Aqueous Solubility: 3000 µg/mL
